Measured values reported in US20020137929A1, “1 - (3-heterocyclylphenyl) isothiourea, -isourea, -guanidine and -amidine herbicidal agents” (Intellectual Property Department, BASF Aktiengesellschaft, priority 1998, published 2002).

Columns and labels:
[1] = tested on: ECHCG (Barnyardgrass); assay: Preemergence herbicidal evaluation; assay type: in vivo, Echinochloa crus-galli; settings: rated 4-5 weeks after treatment
Source text: (§1) Results of herbicide evaluation are expressed on a rating scale (0-9). The scale is based upon a visual observation of plant stand, vigor, malformation, size, chlorosis and overall plant appearance as compared with a control.
(§2) The preemergence herbicidal activity of the test compounds of the present invention is exemplified by the following tests in which the seeds of a variety of monocotyledonous and dicotyledonous plants are separately mixed with potting soil and planted on top of approximately one inch of soil in separate pint cups. After planting, the cups are sprayed with the selected aqueous acetone solution containing test compound in sufficient quantity to provide the equivalent of about 0.0156 to 0.500 kg per hectare of test compound per cup. The treated cups are then placed on greenhouse benches, watered and cared for in accordance with conventional greenhouse procedures. From four to five weeks after treatment, the tests are terminated and each cup is examined and rated according to the rating system provided in Example 37.
(§3) The compounds evaluated are reported by compound number given in Example 37.

[2] = tested on: SETVI (Foxtail, Green); assay: Postemergence herbicidal evaluation; assay type: in vivo, Setaria viridis; settings: postemergence
Procedure: (§4) In the tests, seedling plants are grown in jiffy flats for about two weeks. The test compounds are dispersed in 50/50 acetone/water mixtures containing 0.5% TWEEN®20, a polyoxyethylene sorbitan monolaurate surfactant of Atlas Chemical Industries, in sufficient quantities to provide the equivalent of about 0.0156 kg to 0.500 kg per hectare of active compound when applied to the plants through a spray nozzle operating at 40 psi for a predetermined time. After spraying, the plants are placed on greenhouse benches and are cared for in accordance with conventional greenhouse procedures. From four to five weeks after treatment, the seedling plants are examined and rated according to the rating system set forth below. Where more than one test is involved for a given compound, the data are averaged.
(§5) Plant species employed in these evaluations are reported by header abbreviation, common name and scientific name.
as §1

[3] = tested on: ZEAMX (Corn, Field); assay: Postemergence herbicidal evaluation; assay type: in vivo, Zea mays; settings: postemergence
How it was run: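 First, seedlings were raised for around two weeks. Next, test material in 50/50 acetone/water containing 0.5% TWEEN 20 was sprayed through a nozzle at 40 psi, equivalent to about 0.0156–0.500 kg/ha. Finally, after 4–5 weeks in the greenhouse, plants were rated 0–9.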

[4] = tested on: CYPSE (Flatsedge); assay: Preemergence weed control under flooded paddy conditions; assay type: in vivo, Cyperus serotinus; settings: rated 3-4 weeks after treatment
How it was run: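 Using flooded silt loam (water 1.5 to 3 cm deep), seeds sown in the top 0.5 cm were exposed preemergence to compound pipetted into the flood at about 0.0313 to 0.500 kg/ha. Effects were scored 0-9 by eye three to four weeks later.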

[5] = tested on: ORYSAT (Rice, Tebonnet); assay: Postemergence herbicidal evaluation; assay type: in vivo, Oryza sativa, (L.) Tebonnet; settings: postemergence
Procedure: as §4, §5, §1

[6] = tested on: TRZAWR (Wheat, Winter, cv Riband); assay: Preemergence herbicidal evaluation; assay type: in vivo, Triticum aestivum; settings: rated 4-5 weeks after treatment
Source text: as §1, §2, §3

[7] = tested on: SETVI (Foxtail, Green); assay: Preemergence herbicidal evaluation; assay type: in vivo, Setaria viridis; settings: rated 4-5 weeks after treatment
Source text: as §1, §2, §3

[8] = tested on: ECHORC (Watergrass (Calif.)); assay: Preemergence weed control under flooded paddy conditions; assay type: in vivo, Echinochloa oryzoides; settings: rated 3-4 weeks after treatment
How it was run: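 Visual injury scored 0-9 against control three to four weeks post-treatment, greenhouse-grown. Application: acetone/water (50/50) solutions dosed directly into flood water (1.5-3 cm over silt loam, planted top 0.5 cm), roughly 0.0313 to 0.500 kg/ha active ingredient.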

[9] = tested on: ZEAMX (Corn, Field); assay: Preemergence herbicidal evaluation; assay type: in vivo, Zea mays; settings: rated 4-5 weeks after treatment
Source text: as §1, §2, §3

[10] = tested on: CYPIR (Rice Flatsedge); assay: Preemergence weed control under flooded paddy conditions; assay type: in vivo, Cyperus iria; settings: rated 3-4 weeks after treatment
Procedure: as §1
Preemergence herbicidal activity under flooded paddy conditions is determined as follows: plant seeds or propagating organs are planted in the top 0.5 cm of silt loam soil in 32 oz. plastic containers with a diameter of 10.5 cm and no drainage holes. Water is added to these containers and maintained at 1.5 to 3 cm above the soil surface for the duration of the experiment. The test compounds are applied as aqueous/acetone mixtures 50/50 v/v pipetted directly into the flood water to give the equivalent of about 0.0313 to 0.500 kg/ha of active ingredient. The treated containers are placed on greenhouse benches and cared for in accordance with conventional greenhouse procedures. Three to four weeks after treatment, the test is terminated and each container is examined and herbicidal effect rated according to the rating system provided in Example 37. The compounds evaluated are reported by compound number given in Example 37.
Plant species employed in this example are reported by header abbreviation, common name and scientific name.

COC(=O)COC(=O)CN1C(=O)CSC1=Nc1cc(-n2c(=O)cc(C(F)(F)F)n(C)c2=O)c(F)cc1Cl [Compound 108, 2-{{2-Chloro-5-[3,6-dihydro-3-methyl-2,6-dioxo-4-(trifluoromethyl)-1(2H)-pyrimidinyl]-4-fluorophenyl}imino}-4-oxo-3-thiazolidineacetic acid, ester with methyl glycolate]
Preemergence herbicidal rating ECHCG ([1]; rate 0.0156 kg/ha): 0.0
Preemergence herbicidal rating ECHCG ([1]; rate 0.0313 kg/ha): 0.0
Preemergence herbicidal rating ECHCG ([1]; rate 0.0625 kg/ha): 0.0
Preemergence herbicidal rating ECHCG ([1]; rate 0.1250 kg/ha): 0.0
Preemergence herbicidal rating ECHCG ([1]; rate 0.2500 kg/ha): 1.0
Herbicidal rating SETVI ([2]; rate 0.0158 kg/ha): 4.0
Herbicidal rating SETVI ([2]; rate 0.0315 kg/ha): 6.0
Herbicidal rating SETVI ([2]; rate 0.0630 kg/ha): 7.0
Herbicidal rating ZEAMX ([3]; rate 0.0158 kg/ha): 5.0
Herbicidal rating ZEAMX ([3]; rate 0.0315 kg/ha): 6.0
Herbicidal rating ZEAMX ([3]; rate 0.0630 kg/ha): 6.5
CYPSE herbicidal effect rating ([4]; 0.0313 kg/ha): 0.0
CYPSE herbicidal effect rating ([4]; 0.0625 kg/ha): 0.0
CYPSE herbicidal effect rating ([4]; 0.1250 kg/ha): 0.0
Herbicidal rating ORYSAT ([5]; rate 0.0158 kg/ha): 3.0
Herbicidal rating ORYSAT ([5]; rate 0.0315 kg/ha): 3.0
Herbicidal rating ORYSAT ([5]; rate 0.0630 kg/ha): 3.5
Preemergence herbicidal rating TRZAWR ([6]; rate 0.0156 kg/ha): 0.0
Preemergence herbicidal rating TRZAWR ([6]; rate 0.0313 kg/ha): 0.0
Preemergence herbicidal rating TRZAWR ([6]; rate 0.0625 kg/ha): 0.0
Preemergence herbicidal rating TRZAWR ([6]; rate 0.1250 kg/ha): 2.0
Preemergence herbicidal rating TRZAWR ([6]; rate 0.2500 kg/ha): 5.0
Preemergence herbicidal rating SETVI ([7]; rate 0.0156 kg/ha): 0.0
Preemergence herbicidal rating SETVI ([7]; rate 0.0313 kg/ha): 0.0
Preemergence herbicidal rating SETVI ([7]; rate 0.0625 kg/ha): 1.0
Preemergence herbicidal rating SETVI ([7]; rate 0.1250 kg/ha): 7.0
Preemergence herbicidal rating SETVI ([7]; rate 0.2500 kg/ha): 9.0
ECHORC herbicidal effect rating ([8]; 0.0313 kg/ha): 0.0
ECHORC herbicidal effect rating ([8]; 0.0625 kg/ha): 0.0
ECHORC herbicidal effect rating ([8]; 0.1250 kg/ha): 0.0
ECHORC herbicidal effect rating ([8]; 0.2500 kg/ha): 0.0
Preemergence herbicidal rating ZEAMX ([9]; rate 0.0156 kg/ha): 0.0
Preemergence herbicidal rating ZEAMX ([9]; rate 0.0313 kg/ha): 0.0
Preemergence herbicidal rating ZEAMX ([9]; rate 0.0625 kg/ha): 0.0
Preemergence herbicidal rating ZEAMX ([9]; rate 0.1250 kg/ha): 1.0
Preemergence herbicidal rating ZEAMX ([9]; rate 0.2500 kg/ha): 2.0
CYPIR herbicidal effect rating ([10]; 0.0313 kg/ha): 4.0
CYPIR herbicidal effect rating ([10]; 0.0625 kg/ha): 6.0
CYPIR herbicidal effect rating ([10]; 0.1250 kg/ha): 7.0
CYPIR herbicidal effect rating ([10]; 0.2500 kg/ha): 7.0
